# Values quoted from earlier work, collected in patent US7449585B2, “Indazol-3-ones and analogues and derivatives thereof which modulate the function of the vanilloid-1 receptor (VR1)” (Merck Sharp & Dohme Ltd., priority 2003, dated 2008).
# Biological target: VR1 (Rattus norvegicus, UniProt O35433)
# Conditions: literature (Wahl et al., Mol. Pharmacol, 59:9, 2001)
# Sequence of VR1 (O35433 whole entry): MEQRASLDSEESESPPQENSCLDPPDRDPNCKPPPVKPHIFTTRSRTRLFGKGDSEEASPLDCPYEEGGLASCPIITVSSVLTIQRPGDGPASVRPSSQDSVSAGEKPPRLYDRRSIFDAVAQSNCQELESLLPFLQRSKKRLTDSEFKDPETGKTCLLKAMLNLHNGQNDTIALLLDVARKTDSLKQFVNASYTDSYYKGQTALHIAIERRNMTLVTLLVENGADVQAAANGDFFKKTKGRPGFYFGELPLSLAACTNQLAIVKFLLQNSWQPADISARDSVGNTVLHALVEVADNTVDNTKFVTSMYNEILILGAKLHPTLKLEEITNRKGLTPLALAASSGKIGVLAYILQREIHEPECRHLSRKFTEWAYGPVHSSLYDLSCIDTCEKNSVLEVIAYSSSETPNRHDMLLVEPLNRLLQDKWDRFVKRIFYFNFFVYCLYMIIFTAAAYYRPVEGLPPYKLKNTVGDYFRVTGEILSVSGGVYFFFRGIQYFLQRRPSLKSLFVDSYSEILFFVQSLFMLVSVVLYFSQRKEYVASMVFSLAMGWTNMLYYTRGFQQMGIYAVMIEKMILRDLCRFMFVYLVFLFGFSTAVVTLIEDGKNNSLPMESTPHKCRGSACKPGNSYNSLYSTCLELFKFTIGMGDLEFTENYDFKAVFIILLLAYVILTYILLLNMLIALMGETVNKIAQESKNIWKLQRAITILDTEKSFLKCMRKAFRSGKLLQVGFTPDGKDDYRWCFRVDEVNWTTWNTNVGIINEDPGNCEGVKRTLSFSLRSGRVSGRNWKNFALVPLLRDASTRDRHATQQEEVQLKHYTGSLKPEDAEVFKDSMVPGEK
structure (smiles),measurement,value
C=C(C)[C@]12C[C@@H](C)[C@@]34O[C@](Cc5ccccc5)(O[C@@H]1[C@@H]3C=C(COC(=O)Cc1cc(I)c(O)c(OC)c1)C[C@]1(O)C(=O)C(C)=C[C@@H]41)O2 [Iodo-resiniferatoxin],VR1 antagonist potency (in words),nanomolar antagonist
